Measured values from article PMC11435058, “Synthesis of New Thiazole-Privileged Chalcones as Tubulin Polymerization Inhibitors with Potential Anticancer Activities” (Pharmaceuticals, 2024).

What was measured:
OVCAR-3 = experiment: cells; settings: Homo sapiens
SK-MEL-2 = experiment: NCI-60 anticancer screen (SRB; single dose and five doses); settings: Homo sapiens
RPMI-8226 = experiment: as above; settings: Homo sapiens
SK-OV-3 = experiment: as above; settings: Homo sapiens
MDA-MB-231/ATCC = experiment: as above; settings: Homo sapiens
UO-31 = experiment: as above; settings: Homo sapiens
786-0 = experiment: as above; settings: Homo sapiens
SNB-19 = experiment: cells; settings: Homo sapiens
RXF 393 = experiment: NCI-60 anticancer screen (SRB; single dose and five doses); settings: Homo sapiens
BT-549 = experiment: as above; settings: Homo sapiens
SF-539 = experiment: as above; settings: Homo sapiens
M14 = experiment: as above; settings: Homo sapiens
SW-620 = experiment: as above; settings: Homo sapiens
NCI-H522 = experiment: as above; settings: Homo sapiens
SNB-75 = experiment: as above
SR = experiment: as above; settings: Homo sapiens
A549/ATCC = experiment: as above; settings: Homo sapiens
NCI-H322M = experiment: as above; settings: Homo sapiens
U251 = experiment: as above; settings: Homo sapiens
OVCAR-4 = experiment: as above; settings: Homo sapiens
NCI-H226 = experiment: as above; settings: Homo sapiens
MALME-3M = experiment: as above; settings: Homo sapiens
HCT-15 = experiment: as above; settings: Homo sapiens
HOP-62 = experiment: as above; settings: Homo sapiens
CAKI-1 = experiment: as above; settings: Homo sapiens
SF-268 = experiment: as above; settings: Homo sapiens
HS 578T = experiment: as above; settings: Homo sapiens
TK-10 = experiment: as above; settings: Homo sapiens
MDA-MB-435 = experiment: as above; settings: Homo sapiens

`Cc1[nH]c(=S)sc1C(=O)/C=C/c1ccc(Cl)cc1` [2f, (E)-3-(4-Chlorophenyl)-1-(4-Methyl-2-Thioxo-2,3-Dihydrothiazol-5-yl)Prop-2-En-1-One] gave a GI50 (OVCAR-3; OVCAR-3) of 2.82 µM, an activity at 10 µM (OVCAR-3; OVCAR-3, 48 h, read-out: Growth Percentage) of -24.2% and an IC50 (OVCAR-3; OVCAR-3, OVCAR-3, five doses) of 2.82 µM. It also gave an IC50 (OVCAR-3; OVCAR-3, five-dose, Ovarian Cancer OVCAR-3) of 6.46 µM, a CC50 (OVCAR-3; OVCAR-3, read-out: LC50) of 33.1 µM and an IC (TGI) (OVCAR-3; OVCAR-3, read-out: TGI) of 10.7 µM. For the same compound, the GI50 (SK-MEL-2; SK-MEL-2) was 13.8 µM, the IC50 (SK-MEL-2; SK-MEL-2) was 27.5 µM and the activity at 10 µM (SK-MEL-2; SK-MEL-2, 48 h, read-out: Growth Percentage) was 58.4%. The CC50 (SK-MEL-2; SK-MEL-2, read-out: LC50) was 56.2 µM, the IC (TGI) (SK-MEL-2; SK-MEL-2, read-out: TGI) was 28.2 µM and the GI50 (RPMI-8226; RPMI-8226) was 2.4 µM. It also gave an activity at 10 µM (RPMI-8226; RPMI-8226, 48 h, read-out: Growth Percentage) of 13.8%, an IC50 (RPMI-8226; RPMI-8226, RPMI-8226, five doses) of 2.4 µM and an IC50 (RPMI-8226; RPMI-8226, five-dose, Leukemia RPMI-8226) of 4.68 µM. The CC50 (RPMI-8226; RPMI-8226, read-out: LC50) was greater than 100 µM, the IC (TGI) (RPMI-8226; RPMI-8226, read-out: TGI) was 8.32 µM and the GI50 (SK-OV-3; SK-OV-3) was 15.8 µM. The IC50 (SK-OV-3; SK-OV-3) was 30.2 µM, the activity at 10 µM (SK-OV-3; SK-OV-3, 48 h, read-out: Growth Percentage) was 60.8% and the CC50 (SK-OV-3; SK-OV-3, read-out: LC50) was 66.1 µM. The IC (TGI) (SK-OV-3; SK-OV-3, read-out: TGI) was 32.4 µM, the GI50 (MDA-MB-231/ATCC; MDA-MB-231) was 16.2 µM and the IC50 (MDA-MB-231/ATCC; MDA-MB-231) was 30.9 µM. The activity at 10 µM (MDA-MB-231/ATCC; MDA-MB-231, 48 h, read-out: Growth Percentage) was 39.3%, the CC50 (MDA-MB-231/ATCC; MDA-MB-231, read-out: LC50) was 61.7 µM and the IC (TGI) (MDA-MB-231/ATCC; MDA-MB-231, read-out: TGI) was 31.6 µM. For the same compound, the GI50 (UO-31; UO-31) was 4.07 µM, the IC50 (UO-31; UO-31) was 11.2 µM and the activity at 10 µM (UO-31; UO-31, 48 h, read-out: Growth Percentage) was 30.4%. The IC (TGI) (UO-31; UO-31, read-out: TGI) was 18.2 µM, the GI50 (786-0; 786-0) was 4.68 µM and the IC50 (786-0; 786-0) was 7.76 µM. The activity at 10 µM (786-0; 786-0, 48 h, read-out: Growth Percentage) was 16.6%, the CC50 (786-0; 786-0, read-out: LC50) was 58.9 µM and the IC (TGI) (786-0; 786-0, read-out: TGI) was 20.4 µM. It also gave a GI50 (SNB-19; SNB-19) of 12 µM, an IC50 (SNB-19; SNB-19) of 22.4 µM and an activity at 10 µM (SNB-19; SNB-19, 48 h, read-out: Growth Percentage) of 15.8%. The CC50 (SNB-19; SNB-19, read-out: LC50) was 50.1 µM, the IC (TGI) (SNB-19; SNB-19, read-out: TGI) was 24.6 µM and the GI50 (RXF 393; RXF 393) was 5.89 µM. The IC50 (RXF 393; RXF 393) was 24 µM, the activity at 10 µM (RXF 393; RXF 393, 48 h, read-out: Growth Percentage) was 9.78% and the CC50 (RXF 393; RXF 393, read-out: LC50) was 49 µM. For the same compound, the IC (TGI) (RXF 393; RXF 393, read-out: TGI) was 19.9 µM, the GI50 (BT-549; BT-549) was 5.75 µM and the IC50 (BT-549; BT-549) was 20.9 µM. It also gave an activity at 10 µM (BT-549; BT-549, 48 h, read-out: Growth Percentage) of -14.4%, an IC (TGI) (BT-549; BT-549, read-out: TGI) of 20.4 µM and a GI50 (SF-539; SF-539) of 6.92 µM. For the same compound, the IC50 (SF-539; SF-539) was 16.2 µM, the activity at 10 µM (SF-539; SF-539, 48 h, read-out: Growth Percentage) was -30.4% and the IC (TGI) (SF-539; SF-539, read-out: TGI) was 20.4 µM. The GI50 (M14; M14) was 14.1 µM, the IC50 (M14; M14) was 24.6 µM and the activity at 10 µM (M14; M14, 48 h, read-out: Growth Percentage) was 34.4%. For the same compound, the IC (TGI) (M14; M14, read-out: TGI) was 32.4 µM, the GI50 (SW-620; SW-620) was 3.09 µM and the IC50 (SW-620; SW-620) was 4.37 µM. It also gave an activity at 10 µM (SW-620; SW-620, 48 h, read-out: Growth Percentage) of 8.02%, a CC50 (SW-620; SW-620, read-out: LC50) of 38.9 µM and an IC (TGI) (SW-620; SW-620, read-out: TGI) of 11.2 µM. The GI50 (NCI-H522; NCI-H522) was 11.8 µM, the IC50 (NCI-H522; NCI-H522) was 22.4 µM and the activity at 10 µM (NCI-H522; NCI-H522, 48 h, read-out: Growth Percentage) was 13.5%. It also gave a CC50 (NCI-H522; NCI-H522, read-out: LC50) of 52.5 µM, an IC (TGI) (NCI-H522; NCI-H522, read-out: TGI) of 25.1 µM and a GI50 (SNB-75; Homo sapiens, SNB-75) of 2.19 µM. The IC50 (SNB-75; Homo sapiens, SNB-75) was 8.51 µM, the CC50 (SNB-75; Homo sapiens, SNB-75, read-out: LC50) was 28.8 µM and the TGI (SNB-75; five-dose, CNS Cancer SNB-75) was 6.76 µM. The GI50 (SR) was 3.55 µM, the IC50 (SR) was 5.37 µM and the CC50 (SR; read-out: LC50) was greater than 100 µM. The IC (TGI) (SR; read-out: TGI) was 56.2 µM, the GI50 (A549/ATCC; A549) was 10.7 µM and the IC50 (A549/ATCC; A549) was 16.2 µM. It also gave an activity at 10 µM (A549/ATCC; A549, 48 h, read-out: Growth Percentage) of 61.1%, a CC50 (A549/ATCC; A549, read-out: LC50) of 52.5 µM and an IC (TGI) (A549/ATCC; A549, read-out: TGI) of 24 µM. The GI50 (NCI-H322M) was 10.2 µM, the IC50 (NCI-H322M) was 19.9 µM and the CC50 (NCI-H322M; read-out: LC50) was 51.3 µM. It also gave an IC (TGI) (NCI-H322M; read-out: TGI) of 22.9 µM, a GI50 (U251; U-251) of 3.39 µM and an IC50 (U251; U-251) of 4.79 µM. For the same compound, the activity at 10 µM (U251; U-251, 48 h, read-out: Growth Percentage) was 11.3%, the CC50 (U251; U-251, read-out: LC50) was 40.7 µM and the IC (TGI) (U251; U-251, read-out: TGI) was 13.2 µM. It also gave a GI50 (OVCAR-4; OVCAR-4) of 13.8 µM, an IC50 (OVCAR-4; OVCAR-4) of 25.1 µM and an activity at 10 µM (OVCAR-4; OVCAR-4, 48 h, read-out: Growth Percentage) of 76.3%. The CC50 (OVCAR-4; OVCAR-4, read-out: LC50) was 55 µM, the IC (TGI) (OVCAR-4; OVCAR-4, read-out: TGI) was 27.5 µM and the GI50 (NCI-H226; NCI-H226) was 13.8 µM. It also gave an IC50 (NCI-H226; NCI-H226) of 36.3 µM, an activity at 10 µM (NCI-H226; NCI-H226, 48 h, read-out: Growth Percentage) of 20.5% and a CC50 (NCI-H226; NCI-H226, read-out: LC50) greater than 100 µM. It also gave an IC (TGI) (NCI-H226; NCI-H226, read-out: TGI) of 38 µM, a GI50 (MALME-3M) of 14.5 µM and an IC50 (MALME-3M) of 30.9 µM. It also gave a CC50 (MALME-3M; read-out: LC50) of 75.9 µM, an IC (TGI) (MALME-3M; read-out: TGI) of 33.1 µM and a GI50 (HCT-15; HCT-15) of 4.07 µM. For the same compound, the IC50 (HCT-15; HCT-15) was 5.37 µM, the activity at 10 µM (HCT-15; HCT-15, 48 h, read-out: Growth Percentage) was -19.8% and the CC50 (HCT-15; HCT-15, read-out: LC50) was 49 µM. The IC (TGI) (HCT-15; HCT-15, read-out: TGI) was 16.6 µM, the GI50 (HOP-62; HOP-62) was 5.37 µM and the IC50 (HOP-62; HOP-62) was 12 µM. For the same compound, the activity at 10 µM (HOP-62; HOP-62, 48 h, read-out: Growth Percentage) was -2.73%, the CC50 (HOP-62; HOP-62, read-out: LC50) was 72.4 µM and the IC (TGI) (HOP-62; HOP-62, read-out: TGI) was 22.9 µM. For the same compound, the GI50 (CAKI-1; CAKI-1) was 4.47 µM, the IC50 (CAKI-1; CAKI-1) was 8.71 µM and the activity at 10 µM (CAKI-1; CAKI-1, 48 h, read-out: Growth Percentage) was 53.2%. It also gave a CC50 (CAKI-1; CAKI-1, read-out: LC50) of 43.6 µM, an IC (TGI) (CAKI-1; CAKI-1, read-out: TGI) of 17.4 µM and a GI50 (SF-268; SF-268) of 12 µM. It also gave an IC50 (SF-268; SF-268) of 24.6 µM, an activity at 10 µM (SF-268; SF-268, 48 h, read-out: Growth Percentage) of 67.9% and a CC50 (SF-268; SF-268, read-out: LC50) of 64.6 µM. For the same compound, the IC (TGI) (SF-268; SF-268, read-out: TGI) was 28.2 µM, the GI50 (HS 578T) was 21.4 µM and the IC50 (HS 578T) was greater than 100 µM. The activity at 10 µM (HS 578T; 48 h, read-out: Growth Percentage) was 48%, the CC50 (HS 578T; read-out: LC50) was greater than 100 µM and the IC (TGI) (HS 578T; read-out: TGI) was 77.6 µM. The GI50 (TK-10; TK-10) was 15.1 µM, the IC50 (TK-10; TK-10) was 28.2 µM and the activity at 10 µM (TK-10; TK-10, 48 h, read-out: Growth Percentage) was 40.4%. It also gave a CC50 (TK-10; TK-10, read-out: LC50) of 55 µM, an IC (TGI) (TK-10; TK-10, read-out: TGI) of 28.8 µM and a GI50 (MDA-MB-435; MDA-MB-435) of 5.5 µM. For the same compound, the IC50 (MDA-MB-435; MDA-MB-435) was 11 µM, the activity at 10 µM (MDA-MB-435; MDA-MB-435, 48 h, read-out: Growth Percentage) was 22.5% and the CC50 (MDA-MB-435; MDA-MB-435, read-out: LC50) was 49 µM. It also gave an IC (TGI) (MDA-MB-435; MDA-MB-435, read-out: TGI) of 19.1 µM.
